# Assay results: patent US9708314B2, “Heterocyclic amide compound” (NISSAN CHEMICAL INDUSTRIES, LTD., priority 2013, dated 2017)
# Key:
# Format in all cases: in vivo
# Leptochloa chinensis = experiment: Test Example 3: herbicidal effect by application to foliage (Wagner pot, water depth 0.1-0.5 cm); conditions: Nineteenth Table; application to foliage; application herbicide amount 320 g/ha
# In short: (§1)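 Visual 0–5 rating of herbicidal ratio, taken 3 weeks after foliar spray of a diluted emulsion formulation at rates expressed as g/ha. Plants had been sown in alluvial soil under 0.1–0.5 cm water and grown 14 days at 25–30 °C under glass before application.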
# Cyperus difformis = experiment: as above; conditions: Nineteenth Table; application to foliage; application herbicide amount 320 g/ha
# In short: as §1
# [1] = system: Echinochloa crus-galli var. crus-galli; experiment: as above; conditions: Nineteenth Table; application to foliage; application herbicide amount 320 g/ha
# In short: as §1
# Galium spurium = experiment: Test Example 4: herbicidal effect by application to foliage (diluvial soil, plastic box); conditions: Application herbicide amount 320 g/ha
# In short: (§2)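 Greenhouse plants (25° C. to 30° C., 14 d, diluvial soil) receive a foliar spray of water-diluted emulsifiable formulation at defined g/ha. Grading after 3 weeks uses a six-step herbicidal-ratio scale, with 4 covering 70% to <90% and 1 covering 5% to <20%.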
# Digitaria ciliaris = experiment: as above; conditions: Application herbicide amount 320 g/ha
# In short: as §2
# Monochoria vaginalis = experiment: Test Example 1: herbicidal activity, application before weed generation in submerged conditions; conditions: Application herbicide amount 320 g/ha; Seventeenth Table
# In short: (§3)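 Water-diluted emulsion formulation is applied onto flood water (4 cm deep) covering alluvial soil on the day weed seeds are sown, after transplanting 2.5 leaf stage rice. Rates are expressed per hectare. Injury or control is graded 0–5 three weeks later.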
# [2] = system: Echinochloa oryzacola Vasing.; experiment: as above; conditions: Application herbicide amount 320 g/ha; Seventeenth Table
# In short: as §3
# Scirpus juncoides = experiment: as above; conditions: Application herbicide amount 320 g/ha; Seventeenth Table
# In short: as §3
# [3] = system: directly sowed Oryza sativa; experiment: Test Example 3: effect on crop by application to foliage (Wagner pot, water depth 0.1-0.5 cm); conditions: Nineteenth Table; application to foliage; application herbicide amount 320 g/ha
# In short: as §1
Compound,D (herbicidal effect grade) (Leptochloa chinensis),E (herbicidal effect grade) (Cyperus difformis),H (herbicidal effect grade) [1],Q (Galium spurium),F (Digitaria ciliaris),C: Monochoria vaginalis (herbicidal effect grade) (Monochoria vaginalis),A: Echinochloa oryzicola Vasing. (herbicidal effect grade) [2],B: Scirpus juncoides (herbicidal effect grade) (Scirpus juncoides),b (effect on crop grade) [3]
Cc1nnc(NC(=O)c2ccc(C(F)(F)F)n3c(-c4ccc(Cl)nc4)nnc23)o1 [1-054],5 (Herbicidal ratio of 90% or more (almost completely withered)),5 (Herbicidal ratio of 90% or more (almost completely withered)),5 (Herbicidal ratio of 90% or more (almost completely withered)),4 (Herbicidal ratio of 70% or more and less than 90%),5 (Herbicidal ratio of 90% or more (almost completely withered)),4 (Herbicidal ratio of 70% or more and less than 90%),5 (Herbicidal ratio of 90% or more (almost completely withered)),3 (Herbicidal ratio of 40% or more and less than 70%),3 (Herbicidal ratio of 40% or more and less than 70%)
Cc1nnc(NC(=O)c2ccc(C(F)(F)F)n3c(-c4cccc(Cl)n4)nnc23)o1 [1-055],4 (Herbicidal ratio of 70% or more and less than 90%),5 (Herbicidal ratio of 90% or more (almost completely withered)),5 (Herbicidal ratio of 90% or more (almost completely withered)),2 (Herbicidal ratio of 20% or more and less than 40%),4 (Herbicidal ratio of 70% or more and less than 90%),4 (Herbicidal ratio of 70% or more and less than 90%),4 (Herbicidal ratio of 70% or more and less than 90%),4 (Herbicidal ratio of 70% or more and less than 90%),2 (Herbicidal ratio of 20% or more and less than 40%)
Cc1cc(-c2nnc3c(C(=O)Nc4nnc(C)o4)ccc(C(F)(F)F)n23)n(C)n1 [1-056],5 (Herbicidal ratio of 90% or more (almost completely withered)),5 (Herbicidal ratio of 90% or more (almost completely withered)),5 (Herbicidal ratio of 90% or more (almost completely withered)),4 (Herbicidal ratio of 70% or more and less than 90%),5 (Herbicidal ratio of 90% or more (almost completely withered)),4 (Herbicidal ratio of 70% or more and less than 90%),5 (Herbicidal ratio of 90% or more (almost completely withered)),5 (Herbicidal ratio of 90% or more (almost completely withered)),4 (Herbicidal ratio of 70% or more and less than 90%)
Cc1nnc(NC(=O)c2ccc(C(F)(F)F)n3c(-c4cccs4)nnc23)o1 [1-057],5 (Herbicidal ratio of 90% or more (almost completely withered)),5 (Herbicidal ratio of 90% or more (almost completely withered)),5 (Herbicidal ratio of 90% or more (almost completely withered)),1 (Herbicidal ratio of 5% or more and less than 20%),4 (Herbicidal ratio of 70% or more and less than 90%),4 (Herbicidal ratio of 70% or more and less than 90%),5 (Herbicidal ratio of 90% or more (almost completely withered)),5 (Herbicidal ratio of 90% or more (almost completely withered)),3 (Herbicidal ratio of 40% or more and less than 70%)
Cc1nnc(NC(=O)c2ccc(C(F)(F)F)n3c(-c4cncs4)nnc23)o1 [1-058],5 (Herbicidal ratio of 90% or more (almost completely withered)),5 (Herbicidal ratio of 90% or more (almost completely withered)),5 (Herbicidal ratio of 90% or more (almost completely withered)),2 (Herbicidal ratio of 20% or more and less than 40%),5 (Herbicidal ratio of 90% or more (almost completely withered)),4 (Herbicidal ratio of 70% or more and less than 90%),5 (Herbicidal ratio of 90% or more (almost completely withered)),5 (Herbicidal ratio of 90% or more (almost completely withered)),4 (Herbicidal ratio of 70% or more and less than 90%)
C#CCSc1nnc2c(C(=O)Nc3nnc(C)o3)ccc(C(F)(F)F)n12 [1-065],1 (Herbicidal ratio of 5% or more and less than 20%),3 (Herbicidal ratio of 40% or more and less than 70%),3 (Herbicidal ratio of 40% or more and less than 70%),0 (Herbicidal ratio of 5% or less (almost no effect)),4 (Herbicidal ratio of 70% or more and less than 90%),2 (Herbicidal ratio of 20% or more and less than 40%),5 (Herbicidal ratio of 90% or more (almost completely withered)),3 (Herbicidal ratio of 40% or more and less than 70%),0 (Herbicidal ratio of 5% or less (almost no effect))
Cc1nnc(NC(=O)c2ccc(C(F)(F)C(F)(F)F)n3c(C(C)C)nnc23)o1 [1-066],4 (Herbicidal ratio of 70% or more and less than 90%),3 (Herbicidal ratio of 40% or more and less than 70%),1 (Herbicidal ratio of 5% or more and less than 20%),1 (Herbicidal ratio of 5% or more and less than 20%),3 (Herbicidal ratio of 40% or more and less than 70%),2 (Herbicidal ratio of 20% or more and less than 40%),5 (Herbicidal ratio of 90% or more (almost completely withered)),4 (Herbicidal ratio of 70% or more and less than 90%),0 (Herbicidal ratio of 5% or less (almost no effect))
Cc1nnc(NC(=O)c2ccc(C(F)(F)F)n3c(CO)nnc23)o1 [1-067],5 (Herbicidal ratio of 90% or more (almost completely withered)),5 (Herbicidal ratio of 90% or more (almost completely withered)),5 (Herbicidal ratio of 90% or more (almost completely withered)),3 (Herbicidal ratio of 40% or more and less than 70%),5 (Herbicidal ratio of 90% or more (almost completely withered)),0 (Herbicidal ratio of 5% or less (almost no effect)),3 (Herbicidal ratio of 40% or more and less than 70%),0 (Herbicidal ratio of 5% or less (almost no effect)),2 (Herbicidal ratio of 20% or more and less than 40%)
